A melting point compilation (Tetko et al.; mined from patent text by program, amines drawn as free bases though some values may be those of a salt)

Row | Compound | melting point
1 | Cc1ccn(Cc2ccc(Cl)c(Cl)c2)c(=O)c1C(=O)O | 219 to 221 °C
2 | CN(C(=O)C1CCC1)c1cccc(-c2ccnc3c(C(=O)c4ccco4)cnn23)c1 | 166 to 167 °C
3 | CC1(C)CCC(C)(C)c2cc(C(C)(O)COc3ccc(C(=O)O)c(O)c3)ccc21 (centres undefined) | 170 to 171 °C
4 | Nc1cc(-n2cc(C(=O)O)c(=O)c3cc(F)c(F)c(Cl)c32)cnc1Cl | 277 to 281 °C
5 | O=C(O)CCC(=O)c1ccc(NC(=O)c2ccccc2F)cc1 | 191 to 193 °C
6 | CCC12CCC(=O)C=C1c1c(cc(OC(C)C(=O)OC3COC(C)(C)O3)c(Cl)c1Cl)C2 (centres undefined) | 143 to 145 °C
7 | CCOC(=O)[C@H](CCc1ccccc1)N[C@@H](C)C(=O)N1N=C(C(C)(C)C)S[C@H]1C(=O)O | 165 to 168 °C
8 | N#CC=C1CCN(c2ccc(N3CC(CNC(=O)C4CCCN4)OC3=O)cc2F)CC1 (centres undefined) | 155 °C
9 | O=C1NC=NC2CN=C(c3ccccc3)c3cc(Cl)ccc3C12 (centres undefined) | 150 to 155 °C
10 | CCc1n[nH]c(C(N)=O)c1NC(=O)c1cc(S(C)(=O)=O)ccc1OCc1ccccn1 | 134 to 138 °C
11 | CS(=O)(=O)OCCNc1ccc(Cl)cc1[N+](=O)[O-] | 108 to 109 °C
12 | CCc1cc2oc3cc(-c4ccccc4Cl)c4c(c3c2cc1O)C(=O)NC4=O | 265 to 268 °C
13 | CS(=O)(=O)Nc1nc(CCN2CCC(c3c[nH]c4ccccc34)CC2)cs1 | 141 to 144 °C
14 | CCCOC(=O)c1cn(CC)c2nc(N3CCNCC3)ncc2c1=O | 152 °C
15 | CCOc1ccc(-c2ccc3c(c2)C=C(C(=O)Nc2ccc(CN(C)C4CCOCC4)cc2)CCS3(=O)=O)cc1OCC | 224 to 226 °C
16 | COc1cc(OC)c2c(c1)c(C(=O)C(=O)NC1=CC(=O)OC1)cn2Cc1ccc(Cl)cc1 | 280 to 282 °C
17 | COC(=O)COc1ccccc1Oc1cc(NC(C)=O)c(F)cc1Cl | 139 °C
18 | CC(C)c1nc(CCCO)n(CCO)c1Sc1cc(Cl)cc(Cl)c1 | 155 to 163 °C
19 | CC(C)n1nc(-c2c(Nc3ccccc3)nc(N)nc2-c2ccc(F)cc2)ccc1=O | > 250 °C
20 | COCCOc1cc2ncc(C#N)c(O)c2cc1OCc1ccccc1 | > 250 °C
21 | CC1=C(CCCl)C(=O)C2Sc3ccccc3N2C1 (centres undefined) | 114 °C
22 | NS(=O)(=O)Cc1cccc(NC(=O)c2cnn3c(C(F)F)cc(-c4ccc(C(F)(F)F)cc4)nc23)c1 | 280 °C
23 | COc1ccc(Cn2c(=O)c(C#N)c(Cl)c3cc(F)cnc32)cc1 | 195 °C
24 | CC(=O)NC(CCCCCCCCC(NC(C)=O)C1CCCCCCC1)C1CCCCCCC1 (centres undefined) | 144 to 149 °C

Row | Compound | melting point
25 | COC(=O)CCc1cnoc1-c1ccc(Cl)c(F)c1 | 53 to 54 °C
26 | CC(=O)Nc1ccc(Cl)c2c1C(=O)CCN2C(C)=O | 175 to 177 °C
27 | COc1ccc2c(-c3ccccc3)c(C(=O)O)c(=O)[nH]c2c1 | 292 to 294 °C
28 | CCc1nc2cc(COC)c(Cl)cc2n1-c1ccc(CCOC(=O)NS(=O)(=O)c2ccc(C)cc2)cc1 | 174 °C
29 | Cc1c(C(=O)C(C)Br)ccn1S(=O)(=O)c1ccccc1 (centres undefined) | 99 to 103 °C
30 | O=C(O)CSCCCCCn1nc(-c2ccccc2)c(-c2ccccc2)c1-c1ccccc1 | 140 to 142 °C
31 | CCNC1(c2ccccc2Cl)C(=O)Nc2ccc(OCC)cc21 (centres undefined) | 195 to 200 °C
32 | CCCC(C)C(=O)Oc1c(I)cc(I)cc1I (centres undefined) | 66 to 68 °C
33 | Cc1cccc(-c2ccccc2)c1NC(=N)N(C)C | 144 to 145 °C
34 | N#Cc1nn(-c2c(Cl)cc(C(F)(F)F)cc2Cl)c(N)c1-c1cccc(N)c1 | 187 °C
35 | CNC(=O)c1cccc(CN2CCN(c3nc(C)c(-c4cc(C)n[nH]4)s3)C2=O)c1 | 259 to 261 °C
36 | CCOC(=O)C=Cc1ccc(CCc2nc(-c3ccccc3)c(C)s2)cc1 | 69 to 70 °C
37 | Cc1cccnc1NC(=O)CN1C[C@@H](C)N(c2ncnc3sccc23)[C@@H](C)C1 | 157 to 159 °C
38 | O=C(c1ccccc1)c1ccc(OCCCCCCBr)cc1 | 47 to 49 °C
39 | Cn1cc(-c2cccc(I)c2)c(=O)c(-c2cccc(C(F)(F)F)c2)c1 | 178 to 181 °C
40 | Nc1c(CC(=O)N2CCOCC2)cccc1C(=O)c1ccccc1 | 156 to 158 °C
41 | CCNc1nc2ccccc2n2c(C(C)C)nnc12 | 209 to 211 °C
42 | CC(=NNC(=O)C1CCC1)c1ccncc1 | 139 °C
43 | CCOC(=O)C(C)(C)n1c(=O)[nH]c2ccc(C)cc2c1=O | 156 to 157 °C
44 | OCc1ccc(OCc2ccc3ccccc3n2)nc1 | 124 to 125 °C
45 | Cn1c(C(F)(F)F)cc(=O)n(Nc2cccc(Cl)c2Cl)c1=O | 179 °C
46 | Nc1ccc(-n2ccn(CCCC3CCCCC3)c2=O)cc1 | 83 to 85 °C
47 | COc1c(CN(C)C)c2c(c3c1OC(C)(C)C3)C(c1ccccc1)=NC(C)(C)C2 | 124 to 125 °C

Results, then the molecule that gave them:

Row | melting point | Compound
48 | 76 to 77 °C | Nc1cccc(OCCN2CCc3ccccc3C2)c1N
49 | 98 to 102 °C | COc1ccnc(CSc2nc3cc(OC(F)(F)C(F)F)ccc3[nH]2)c1OC
50 | 124 to 126 °C | CCc1ccc2c(c1)C(=O)Nc1cccnc1N2C(=O)NCCN1CCCCC1CN(CC)CC (centres undefined)
51 | > 260 °C | COC(=O)c1c[nH]c(C=Cc2cnc3nc(NC(=O)C(C)(C)C)nc(O)c3c2)c1
52 | 69 °C | CN(CCCCNC(=O)NCCCOc1cccc(CN2CCCCC2)c1)CCN(Cc1ccc(F)cc1)c1ccccn1
53 | 169 °C | CCc1cc2oc(=O)c(C#N)c(C)c2cc1CC
54 | 33 to 35 °C | CCCCCCCCCCCCCCOCC(CC#N)(CC#N)COCCCCCCCCCCCCCC
55 | 100 to 102 °C | COC(=O)c1cc(Cl)c(NC(C)=O)cc1OC1C=CCCC1 (centres undefined)
56 | 161 to 162 °C | CS(=O)(=O)Nc1ccc(OC(=O)c2ccc(CCBr)cc2)cc1
57 | 129 to 131 °C | COc1ccc(-c2ccc3nn(-c4cc(C(C)(C)CC(C)(C)C)cc(C(C)(C)c5ccccc5)c4O)nc3c2)cc1
58 | 83 to 86 °C | CCN(C(=O)CC(OC)(C(F)(F)F)C(F)(F)F)c1cn(-c2cccnc2)nc1C
59 | 261 to 263 °C | N=C(N)Cc1ccccc1-n1cnc2cnc3ccc(-c4ccccc4)cc3c21
60 | 128 °C | COc1c(Cl)cc(CNc2ccccc2[N+](=O)[O-])cc1Cl
61 | 130 to 134 °C | CC(C)c1cc(S(=O)(=O)C(C)C)c(C(C)C)cc1C#N
62 | 93 to 95 °C | CCC(/C=C(\OC)C(=O)OC)=C\c1cc2ccccc2[nH]1
63 | 198 °C | CCOC(=O)Nc1c(C(=O)O)oc2cc(OCc3ccccc3)ccc12
64 | 113 °C | CCCCc1nc(C=O)c(Br)[nH]1
65 | 175 to 180 °C | O=C(NCC12CC3CC(CC(C3)C1)C2)c1c(Cl)ccc2nc(N3C[C@@H]4C(C(=O)O)[C@@H]4C3)ccc12 (some centres undefined)
66 | 114 to 115 °C | COc1ccc(C(=O)C2CCN(C3CN(C(=O)c4ccccc4)CCC3O)CC2)cc1 (centres undefined)
67 | 199 to 200 °C | CC1(C)CCC(C)(C)c2cc3[nH]c(SCc4ccccn4)nc3cc21
68 | > 230 °C | FC1(Cl)Oc2cc3nc(C(Cl)(Cl)Cl)[nH]c3cc2OC1(F)Cl (centres undefined)
69 | 125 to 127 °C | Cn1c(C(F)(F)F)cc(=O)n(-c2cc(OCCBr)c(Cl)cc2F)c1=O
70 | 94 to 95 °C | CNC(=O)C(=O)CCCCCCSc1ccc2ccccc2c1
71 | 295 °C | CC(C)(C)c1ccccc1N1CCN(C(=O)c2nc[nH]n2)CC1
72 | 193 to 194 °C | Cc1c[nH]c(Cc2ccc(O)cc2)n1
73 | 121 to 122 °C | Clc1ccc(CCC(Cn2ccnc2)Sc2ccccc2Cl)s1 (centres undefined)

Row | melting point | Compound
74 | 95 to 97 °C | O=C=Nc1ccc(OCCOc2ccc(N=C=O)cc2)cc1
75 | 97 to 98 °C | CN(C)CCN1Cc2cccc3cccc(c23)S1(=O)=O
76 | 245 °C | NC(=O)c1c(Br)cc(Br)c(CC(=O)O)c1Br
77 | 68 to 70 °C | CC(C)(C)OC(=O)[C@@H]1CCCN1C(=O)C1CCCC1SC(=O)c1ccccc1 (some centres undefined)
78 | 64 to 66 °C | CCOC(=O)COc1ccc(CCl)cc1OC
79 | 122 °C | COc1cc(F)c2ncc(F)cc2c1
80 | 92 to 96 °C | CCC1(CC)C(=O)N(C(C)(C)C)CC(C)(C)N1C(C)c1ccc(OC(C)=O)cc1 (centres undefined)
81 | 144 °C | O=C(N=c1sc2cc(OC(F)(F)F)ccc2n1CCCO)C(F)(F)F
82 | 160 to 163 °C | CC(=O)NCc1ccc(CN2CCN(c3ncc(Br)s3)CC2)cc1
83 | 106 to 108 °C | CN(Cc1ccccc1)Cc1nc(-c2ccc(-c3ccccc3)cc2)c[nH]1
84 | 233 to 236 °C | CC(=O)c1ccc(Nc2cccc(-c3cnc(N)nc3)c2)c([N+](=O)[O-])c1
85 | 162 °C | COc1ccc2c(=O)cc(-c3ccc(F)cc3)oc2c1
86 | 109 to 111 °C | CC(C)c1ccc(-c2noc3c2CCC(C(=O)O)CC3)cc1 (centres undefined)
87 | 134 to 136 °C | COC1=CC(=O)C(O)=C(CCCCCCCC2OC2CCCCCCCC2=C(O)C(=O)C=C(OC)C2=O)C1=O (centres undefined)
88 | 247 to 249 °C | CC(C)(NC(=O)c1nc2ccc(NCCCN3CCC(OC(c4ccccc4)c4ccccc4)CC3)nn2n1)C(=O)O
89 | 133 °C | CCc1cc2c(o1)S(=O)(=O)NC2=O
90 | 123 to 124 °C | O=C1Cc2ccccc2Sc2cc(C(F)(F)F)c(Cl)cc21
91 | 177 to 179 °C | CCCCC(=N)NC(=O)Nc1ccc(Cl)c(Cl)c1
92 | 105 to 107 °C | c1ccc(Cn2ccnc2CC2COc3ccccc3O2)cc1 (centres undefined)
93 | 235 to 237 °C | O=C(Nc1n[nH]c(=S)s1)N[C@@H](Cc1ccccc1)C(=O)N1CCN(c2ncccn2)CC1
94 | 117 to 118 °C | Cc1nnc(COc2ccc(NC(=O)/C=C/c3cnn(C)c3-c3ccc(F)cc3)cc2)o1
95 | 147 to 148 °C | CC#CNC(=C[N+](=O)[O-])NCCSCc1ccccn1
96 | 106 to 108 °C | CCCc1nn(C)c2c(=O)n(CCOc3ccc(SC(C)(C)C(=O)OCC)cc3)c(C)nc12
97 | 258 to 260 °C | CCS(=O)(=O)c1cc2c(cc1OC)CCn1c3c(c(-c4cncs4)c1-2)CCCCN(C(C)(C)C)C3=O
98 | 64.8 to 66 °C | CCc1cc(CC)nc(Sc2ccnc3cc(Cl)ccc23)n1
99 | 179 °C | CO[C@@H]1CNCC[C@@H]1NC(=O)c1cc(Cl)c(N)c2c1OC(C)(C)C2 (relative stereo)
